Data: patent US20140377403A1, “METHOD FOR EVALUATING FLAVOR-IMPROVING AGENT” (T. HASEGAWA CO., LTD., priority 2011, published 2014)

Assays:
salivary gland = test: Salivary gland response: change in blood flow (signal strength) at a periphery of the temple of the forehead, measured with an optical topography system; format: in vivo, human
Source text: Each subject is held in a resting state, keeps water in the mouth such that the water spreads throughout the mouth for 30 seconds, then swallows the water, and then is held in a resting state for 60 seconds. Subsequently, the subject keeps a sample in the mouth to carefully taste the sample in the mouth for 30 seconds, then swallows the sample, and then is held in a resting state for 60 seconds again. Subsequently, the subject keeps water in the mouth again such that the water spreads throughout the mouth for 30 seconds, then swallows the water, and then is held in a resting state for 60 seconds. Subsequently, the subject keeps another sample in the mouth to carefully taste the sample in the mouth for 30 seconds, then swallows the sample, and then is held in a resting state for 60 seconds again. Thus, drinking of water and drinking of a sample are alternately repeated (FIG. 2). A sample can be evaluated at about four or five different concentrations in each experiment. […] Samples at previously selected four or five different concentrations are sequentially evaluated by the above-described procedure. During the evaluation of the sample, including the times of drinking and resting, the blood flow is measured, and the change therein is recorded. In addition, sensory evaluation is performed during the tasting of the sample in the mouth for 30 seconds. After completion of the evaluation at a series of four or five concentrations, the strength of flavor of the sample is concluded lastly to fill the sensory evaluation sheet (FIG. 3). When a sample is drunk in accordance with the above-described procedure, the blood flow at a periphery of the temple of the forehead gradually increases after putting the sample into the mouth, and the signal strength reaches the maximum within about 5 to 30 seconds. Subsequently, the signal strength gradually decreases and reaches the original level within about 60 seconds after putting the sample into the mouth. Accordingly, a value obtained by subtracting the “minimum” blood flow within about 15 seconds after the moment of putting a sample into the mouth from the “maximum” blood flow during from about 5 to 30 seconds after putting the sample into the mouth at a specific site, i.e., the response strength of a change in blood flow, is defined as a change in signal strength at the periphery of the temple of the forehead. […] A probe (FIG. 1) having a large number of sensors connected to an optical topography system body was set to the head of each subject, and then each sample was given to the subjects sequentially, followed by measurement. In accordance with the time schedule shown in FIG. 2, after resting, water was first given, and then a sample was given to aggressively evaluate the flavor. The order of drinking aqueous solutions of one kind of a taste substance given to the subjects was from a lower concentration to a higher concentration sequentially. (1) FIG. 4 is a graph illustrating the amount of typical change in oxygenated hemoglobin with time when water was put in the mouth and drunk and then a sample was put in the mouth and drunk, measured with an optical topography system at a periphery of the temple of the forehead (channel 52). […] The response strength was determined by that “when the time at which a sample was drunk is defined as a time of 0 second, (the maximum blood flow within 5 to 30 seconds)−(the minimum blood flow within 0 to 15 seconds)”.

subjects = test: Sensory evaluation of strength of taste of sample solutions by subjects; format: in vivo, human; conditions: for strength of sensory sweetness: subjects who showed a change in salivary gland response in Example 2
Source text: Each subject is held in a resting state, keeps water in the mouth such that the water spreads throughout the mouth for 30 seconds, then swallows the water, and then is held in a resting state for 60 seconds. Subsequently, the subject keeps a sample in the mouth to carefully taste the sample in the mouth for 30 seconds, then swallows the sample, and then is held in a resting state for 60 seconds again. Subsequently, the subject keeps water in the mouth again such that the water spreads throughout the mouth for 30 seconds, then swallows the water, and then is held in a resting state for 60 seconds. Subsequently, the subject keeps another sample in the mouth to carefully taste the sample in the mouth for 30 seconds, then swallows the sample, and then is held in a resting state for 60 seconds again. Thus, drinking of water and drinking of a sample are alternately repeated (FIG. 2). A sample can be evaluated at about four or five different concentrations in each experiment. […] Samples at previously selected four or five different concentrations are sequentially evaluated by the above-described procedure. During the evaluation of the sample, including the times of drinking and resting, the blood flow is measured, and the change therein is recorded. In addition, sensory evaluation is performed during the tasting of the sample in the mouth for 30 seconds. After completion of the evaluation at a series of four or five concentrations, the strength of flavor of the sample is concluded lastly to fill the sensory evaluation sheet (FIG. 3).
The sensory evaluation was performed in accordance with the evaluation questionnaire shown in FIG. 3 for the strength of taste as 0: tasteless, 3: weak, 6: moderate, 9: strong, and 12: very strong.
The samples of four different concentrations were subjected to sensory evaluation from a lower concentration of ethylmaltol to a higher concentration sequentially in accordance with the time schedule shown in FIG. 2 as in Example 1.

[1] = 0, 1, 5, 10 ppm added to 4% aqueous sugar solution

SMILES: COc1ccc(C=CC=O)cc1 [p-methoxycinnamaldehyde]
- response measured at the periphery of the temple of the forehead compared with 4% aqueous sugar solution alone (salivary gland; 0, 1, 5, 10 ppm added to 4% aqueous sugar solution, subjects who showed a change in salivary gland response in Example 2, FIGS. 8 and 9): enhanced
- strength of sensory sweetness (subjects; [1]): increased with the concentration

SMILES: CC(C)=CCCC(C)=CC=O [citral]
- response measured at the periphery of the temple of the forehead compared with 0.1% aqueous citric acid solution alone (salivary gland; 0, 1, 5, 10 ppm added to 0.1% aqueous citric acid solution, subjects showing a change in salivary gland response to a known flavor-improving agent, FIG. 10): enhanced
- strength of sensory acidity (subjects; 0, 1, 5, 10 ppm added to 0.1% aqueous citric acid solution, subjects showing a change in salivary gland response to a known flavor-improving agent): increased with the concentration
- strength of sensory sweetness (subjects; [1]): No increase

SMILES: OCCc1ccccc1 [2-phenylethyl alcohol]
- strength of sensory sweetness (subjects; [1]): No increase

SMILES: OC[C@H]1O[C@@](CO)(O[C@H]2O[C@H](CO)[C@@H](O)[C@H](O)[C@H]2O)[C@@H](O)[C@@H]1O [sugar]
- response strength measured at a periphery of the temple of the forehead, compared with water (salivary gland; aqueous sugar solution 0 to 8%, eight arbitrarily selected subjects): larger than that to water in all subjects
- dependence of response strength on sample concentration and sweetness strength (salivary gland; sugar concentration range 0 to 8%, eight subjects): an enhancement of the response strength depending on the sample concentration and the sweetness strength was observed

SMILES: CCc1occc(=O)c1O [ethylmaltol, reference compound]
- signal strength compared with 4% aqueous sugar solution alone (salivary gland; 0, 1, 5, 10 ppm added to 4% aqueous sugar solution, eight arbitrarily selected subjects, FIGS. 6 and 7): An enhancement in signal strength by addition of ethylmaltol was confirmed in six subjects
- strength of sensual sweetness (subjects; 0, 1, 5, 10 ppm added to 4% aqueous sugar solution, eight arbitrarily selected subjects): increased with the amount of ethylmaltol
